Experimental data from US5385918A, “Aminomethylene-peptides as immunosuppressants” (Miles Inc., priority 1993, dated 1995).

Assays:
FKBP = FKBP (Homo sapiens, UniProt P62942); assay: PPIase Inhibition Assay; format: biochemical; details: inhibition of PPIase activity of FKBP, substrate Succinyl-Ala-Phe-Pro-Phe-para-nitroanilide
Experimental: This assay follows in principle the procedure described in Kofron et al., 1991, Biochemistry 30:6127. The three main reagents used are PPIase, a substrate for PPIase, and a selected inhibitor compound of the present invention. The basic principle behind this assay is the conversion of the cis isomer of the substrate to the trans form, which conversion is catalyzed by PPIase. Essentially, inhibition of this PPIase activity is measured for the selected compounds. A peptide chymotrypsin substrate containing a proline in the P2 position is only cleaved by chymotrypsin when the Phe-Pro bond is in the trans isomeric configuration. In the presence of excess chymotrypsin, all of the trans peptide isomers are cleaved within approximately five seconds, leaving only cis forms.
The cis peptide will spontaneously convert to the trans isomer at a slow rate. The cis to trans conversion is catalyzed by isomerases at a much faster rate than this spontaneous conversion. Proteins with PPIase activity are examples of such isomerases. After isomerization, the peptide is cleaved by chymotrypsin releasing p-nitroaniline which can be monitored at 390 nm. The rate of release is then calculated using a first order rate plus offset equation utilizing the ENZFITTER program (Leatherbarrow, BIOSOFT, Cambridge, United Kingdom).
In a plastic cuvette are added 950 ul of ice cold assay buffer (25 mM HEPES, pH 7.8, 100 mM NaCl), 10 uL of FKBP (2.5 uM in 10 mM Tris-Cl pH 7.5, 100 mM NaCl, 1 mM dithiothreitol), 25 ul of chymotrypsin (50 mg/ml in 1 mM HCl) and 10 ul of the test compound at various concentrations in dimethyl sulphoxide. The reaction is initiated by addition of 5 ul of substrate (Succinyl-Ala-Phe-Pro-Phe-para-nitroanilide, 5 mg/ml in 235 mM LiCl in trifluoroethanol).
The absorbance at 390 nm versus time is monitored for 90 sec using a Beckman DU70 spectrophotometer. The absorbance versus time data files are transferred to an IBM XT computer and the rate constants determined using the commercial Enzfitter program. For each set of data, the uncatalyzed rate of conversion is measured and the uninhibited enzymatic rate determined. The data are expressed as % Inhibition and are calculated as follows: [formula] where kobs is the rate in the presence of a selected test compound, kuncat is the rate in the absence of enzyme, and kuninh is the rate in the presence of enzyme and absence of inhibitor. Data are plotted as percent inhibition versus concentration of inhibitor. The values of the concentration of inhibitor required for 50% inhibition of enzyme activity (IC50) were determined by nonlinear least squares regression analysis.

human T-cells = assay: Suppression of Human T-Cell Proliferation Assay (PHA-stimulated, [3H]-thymidine incorporation); format: cell-based; details: for IC50: inhibition of [3H]-thymidine incorporation of PHA-stimulated purified human T-cells, 72 hours
From the text: Inhibition of mitogen-induced T-cell proliferation can be used to profile immunosuppressive activity of test compounds. In the description of the assay which follows, mitogen-induced T-cell proliferation was used to test the inhibitory potencies of select compounds of the present invention.
In an assay similar to that described by Bradley in Mishell et al. (Eds.), 1980, Selected Methods in Cellular Immunology, pp 156-161, W. H. Freeman & Co., San Fransisco, Calif., T-cells were stimulated by incubation with phytohemagglutinin (PHA) which binds to cell surface molecules, including the T-cell receptor. This stimulation results in proliferation which can be measured by incorporation of [^3 H]-thymidine into cellular DNA.
Fresh LeukoPaks were obtained from the New York Blood Center, New York, N.Y. The cells, including erythrocytes and leukocytes, were diluted with Hank's Balanced Salt Solution (HBSS) (GIBCO, Grand Island, N.Y.) and layered over Lymphoprep (Nycomed Pharma AS, Oslo, Norway) in sterile 50 ml conical centrifuge tubes. Lymphocytes were isolated at the Hank's/Nycomed interface after centrifugation at 2000×g, 4° C. for 15 min. The lymphocytes were washed with Minimal Essential Medium (GIBCO) containing 2% fetal bovine serum (FBS) (Sigma Chemical Co., St. Louis, Mo.), 1% HEPES buffer (GIBCO) and 1% Penicillin-Stretomycin solution (GIBCO).
T-cells were further purified essentially by sheep erythrocyte (SRBC) rosetting as described by Morimoto et al., 1983, J. Immunol. 130:157. The isolated lymphocytes were adjusted to 2×10^7 cells/ml and 5 ml aliquots of the cell suspension were incubated for 10 minutes at room temperature with 5 ml of a 5% SRBC (Cappel, Organon Technika Corp., West Chester, Pa.) suspension. The cells were gently pelleted by centrifugation at 300 rpm for 10 minutes, followed by a 1 hour incubation at room temperature to allow rosette formation. The cells were gently resuspended,layered over Lymphoprep and centrifuged for 30 minutes at 500×g. The pellet, containing rosetted T-cells and SRBC was treated with ice cold buffered ammonium chloride (GIBCO) to lyse the erythrocytes. T-cells were washed twice with HBSS.
Purified T-cells were resuspended at 2×10^6 cells/ml in complete culture medium composed of RPMI-1640 (Whittaker Bioproducts, Walkerville, Md.) with 10% FBS (Sigma), 2 mM L-glutamine (GIBCO), 1% Penicillin-Streptomycin (GIBCO) and 15 mM HEPES (GIBCO). In 96-well plates (Becton Dickinson, Lincoln Park, N.J.), 0.1 ml aliquots of T-cell suspension were mixed with 0.05 ml of 40 μg/ml PHA-M (Sigma). The compounds of this invention were dissolved in dimethylsulfoxide at 10 mM and various dilutions in complete medium were added in duplicate wells (0.05 ml/well). The plates were incubated at 37° C. in a humidified atmosphere of 5% carbon dioxide and 95% air for 72 hours.
Proliferation was assessed by measurement of [^3 H]-thymidine incorporation. During the last 6 hours of incubation, the cells were pulse labelled with 1 μCi/well of [^3 H]-thymidine (New England Nuclear, Boston, Mass.). The cells were harvested onto glass fiber paper using a plate harvester and the radioactivity incorporated into cellular DNA corresponding to individual wells was measured by standard liquid scintillation counting methods. The mean counts per minute (CPM) of replicate wells was calculated and linear regression analysis of mean CPM versus compound concentration was used to determine the concentration of compound which would inhibit [^3 H]-thymidine incorporation of T-cells by 50% (IC50).

Chain of FKBP (P62942 whole entry): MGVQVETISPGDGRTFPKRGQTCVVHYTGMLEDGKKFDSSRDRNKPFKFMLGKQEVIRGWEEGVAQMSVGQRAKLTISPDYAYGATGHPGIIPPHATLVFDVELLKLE

| IC50 (FKBP) [µM] | SMILES | IC50 (human T-cells) [µM] | inhibition of mitogen induced T-cell proliferation (human T-cells) |
| --- | --- | --- | --- |
| 5 | CC[C@H](C)[C@H](NC(=O)[C@@H]1CCCCN1C[C@@H](NC(=O)OC(C)(C)C)[C@@H](C)CC)C(=O)NCc1ccccc1 [Example 3, 1-[1-[2-(S)-[[(1,1-Dimethylethoxy)carbonyl]amino]-3-(S)-methylpentyl]-L-homoproline]-L-isoleucine Benzylamide] | 0.7 | – |
| 0.13 | CCC(C)[C@@H](CN1CCC[C@H]1C(=O)N[C@H](C(=O)NCc1ccccc1)[C@@H](C)CC)NC(=O)[C@H](CC1CCCCC1)NC(=O)OC(C)(C)C (stereo partly drawn) [Example 7, 1-[1-[2-(S)-[[2-(S)-[[(1,1-Dimethylethoxy)carbonyl]amino]-1-oxo-3-cyclohexylpropyl]amino]-3-methylpentyl]-L-proline]-L-isoleucine Benzylamide] | 3 | – |
| 0.16 | CCC(C)[C@@H](CN1CCC[C@H]1C(=O)N[C@H](C(=O)NCc1ccccc1)[C@@H](C)CC)NC(=O)[C@@H](N)CC1CCCCC1 (stereo partly shown) [Example 8] | 5 | – |
| > 5 | CC[C@H](C)[C@H](NC(=O)[C@@H]1CCCN1C[C@H](CC1CCCCC1)NC(=O)OC(C)(C)C)C(=O)NCc1ccccc1 [Example 16, 1-[1-[2-(S)-[[(1,1-dimethylethoxy)carbonyl]amino]-3-cyclohexylpropyl]-L-proline]-L-isoleucine Benzylamide] | 6 | – |
| 1.3 | CC[C@H](C)[C@H](NC(=O)[C@@H]1CCCCN1C[C@H](CC(C)C)NC(=O)OC(C)(C)C)C(=O)NCc1ccccc1 [Example 18, 1-[1-[2-(S)-[[(1,1-Dimethylethoxy)carbonyl]amino]-4-methylpentyl]-L-homoproline]-L-isoleucine Benzylamide] | 4 | – |
| 5 | CC[C@H](C)[C@@H](CN1CCCC[C@H]1C(=O)N[C@H](C(=O)NCc1ccccc1)[C@@H](C)OCc1ccccc1)NC(=O)OC(C)(C)C [Example 19, 1-[1-[2-(S)-[[(1,1-Dimethylethoxy)carbonyl]amino]-3-(S)-methylpentyl]-L-homoproline]-L-threonene(O-Benzyl Ether)Benzylamide] | 17 | – |

Second part, the molecule before the results:

| SMILES | IC50 (FKBP) [µM] | IC50 (human T-cells) [µM] | inhibition of mitogen induced T-cell proliferation (human T-cells) |
| --- | --- | --- | --- |
| CC[C@H](C)[C@H](NC(=O)[C@@H]1CCCN1C[C@H](CC(C)C)NC(=O)OC(C)(C)C)C(=O)NCc1ccccc1 [Example 2, 1-[1-[2-(S)-[[(1,1-Dimethylethoxy)carbonyl]amino]-4-methylpentyl]-L-proline]-L-isoleucine Benzylamide] | 0.57 | 7 | – |
| CC[C@H](C)[C@H](NC(=O)[C@@H]1CCCN1C[C@@H](NC(=O)OC(C)(C)C)[C@@H](C)CC)C(=O)NCc1ccccc1 [Example 6] | 0.39 | 6 | – |
| CC[C@H](C)[C@H](NC(=O)[C@@H]1CCCN1C[C@H](CC(C)C)NC(=O)[C@H](CC(N)=O)NC(=O)[C@H](Cc1ccccc1)NC(=O)OC(C)(C)C)C(=O)OCc1ccccc1 [Example 14, 1-[1-[2-(S)-[[1-[1-[(1,1-Dimethylethoxy)carbonyl]-L-phenylalanyl]-L-asparaginyl]amino]-4-methylpentyl]-L-proline]-L-isoleucine Phenylmethyl Ester] | < 50 | < 6 | inhibited mitogen induced T-cell proliferation |
| CC[C@H](C)[C@H](NC(=O)[C@@H]1CCCN1C[C@@H](NC(=O)OC(C)(C)C)C(C)C)C(=O)NCc1ccccc1 [Example 17, 1-[1-[2-(S)-[[(1,1-dimethylethoxy)carbonyl]amino]-3-methylbutyl]-L-proline] -L-isoleucine Benzylamide] | 0.47 | 14 | inhibited mitogen induced T-cell proliferation |
